This is an account of results in patent publication US20240316047A1, “INHIBITORS OF RNA HELICASE DHX9 AND USES THEREOF” (ACCENT THERAPEUTICS, INC., priority 2022, published 2024).

The assay deals with Human recombinant DHX9 protein (Homo sapiens (Human), UniProt Q08211). The assay is described as follows: DHX9 ATPase assay (ADP-Glo). It counts as biochemical. As to conditions: for IC50: read-out: DHX9 Biochemical Inflection Point. In general terms: ADP-Glo turns the ADP formed in a reaction into a luminescent signal.
Sequence of Human recombinant DHX9 protein (Q08211 whole entry): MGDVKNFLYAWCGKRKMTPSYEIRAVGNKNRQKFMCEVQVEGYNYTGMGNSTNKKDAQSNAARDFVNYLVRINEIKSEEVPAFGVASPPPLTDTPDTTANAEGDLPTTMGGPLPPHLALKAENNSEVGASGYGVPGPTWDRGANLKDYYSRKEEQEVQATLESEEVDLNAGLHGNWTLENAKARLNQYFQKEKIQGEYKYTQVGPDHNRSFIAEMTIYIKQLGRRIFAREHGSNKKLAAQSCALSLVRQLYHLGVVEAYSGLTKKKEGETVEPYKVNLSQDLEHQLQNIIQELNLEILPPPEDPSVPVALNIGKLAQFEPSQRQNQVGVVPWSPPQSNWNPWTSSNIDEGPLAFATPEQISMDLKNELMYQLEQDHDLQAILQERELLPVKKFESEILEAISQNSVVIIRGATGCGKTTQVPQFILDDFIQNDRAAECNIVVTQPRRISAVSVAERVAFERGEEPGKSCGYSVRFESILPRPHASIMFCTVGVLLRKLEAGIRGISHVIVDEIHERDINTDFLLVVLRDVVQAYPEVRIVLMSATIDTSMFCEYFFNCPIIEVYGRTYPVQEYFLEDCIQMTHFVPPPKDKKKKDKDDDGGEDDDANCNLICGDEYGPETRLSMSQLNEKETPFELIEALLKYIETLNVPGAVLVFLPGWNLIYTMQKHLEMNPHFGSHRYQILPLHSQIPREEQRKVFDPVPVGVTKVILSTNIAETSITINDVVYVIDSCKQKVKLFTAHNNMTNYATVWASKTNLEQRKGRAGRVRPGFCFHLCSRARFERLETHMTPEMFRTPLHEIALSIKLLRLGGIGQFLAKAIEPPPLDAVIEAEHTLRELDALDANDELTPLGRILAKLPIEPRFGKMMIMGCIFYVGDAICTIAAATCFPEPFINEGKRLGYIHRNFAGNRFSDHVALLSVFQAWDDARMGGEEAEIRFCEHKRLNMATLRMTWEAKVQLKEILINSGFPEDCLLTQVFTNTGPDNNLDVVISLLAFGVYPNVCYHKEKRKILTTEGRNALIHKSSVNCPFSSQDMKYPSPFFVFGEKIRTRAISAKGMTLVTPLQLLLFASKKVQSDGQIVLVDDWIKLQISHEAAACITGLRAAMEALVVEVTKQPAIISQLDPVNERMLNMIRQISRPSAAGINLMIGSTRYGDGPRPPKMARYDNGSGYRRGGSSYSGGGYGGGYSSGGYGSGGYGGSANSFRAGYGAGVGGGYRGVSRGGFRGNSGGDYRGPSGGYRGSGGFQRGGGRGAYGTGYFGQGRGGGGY

Consider `Cc1cc(N2CCC(F)(F)CC2)cnc1-c1cc(C(=O)Nc2cc(Cl)cc(NS(C)(=O)=O)c2)sc1C` [Example 602], for which the “DHX9 Biochemical Max Inhibition” value is reported as 92.4 and the IC50 came out at 57.8 nM.
For the molecule `CS(=O)(=O)Nc1cc(Cl)cc(NC(=O)c2cnn(-c3ncccc3OCc3cccc(O)c3)c2)c1` [Example 179], the “DHX9 Biochemical Max Inhibition” value was 72.3% and the IC50 is 27.2 nM.
On to `CSc1cccnc1-n1cc(C(=O)Nc2cc(Cl)cc(NS(C)(=O)=O)c2)cn1` [Example 219], for which the “DHX9 Biochemical Max Inhibition” value turned out to be 62.3% and the IC50 worked out at 40.6 nM.
The matching figures for `Cc1sc(C(=O)Nc2cc(Cl)cc(NS(C)(=O)=O)c2)cc1-c1ncc(C(F)(F)F)cc1F` [Example 368]: 67.3% and 118 nM.
The matching figures for `Cc1cnc(-c2cc(C(=O)Nc3cc(Cl)cc(NS(C)(=O)=O)c3)cn2C)c(F)c1` [Example 580]: 70.5 and 23.9 nM.
The matching figures for `Cn1cc(C(=O)Nc2cc(Cl)cc(NS(C)(=O)=O)c2)cc1-c1ncc(N2CCC3(CC2)CC3)cc1F` [Example 468]: 96 and 132 nM.
Regarding `CS(=O)(=O)Nc1cc(Cl)cc(NC(=O)c2cc(-c3ccccc3OCc3ccccc3)cs2)c1` [Example 111], the “DHX9 Biochemical Max Inhibition” value is listed as 68.2% and the IC50 amounted to 250 nM.
The matching figures for `CS(=O)(=O)Nc1cc(Cl)cc(NC(=O)c2cnn(-c3cnc(N4CCOCC4)cn3)c2)c1` [Example 388]: 52.8% and 381 nM.
The matching figures for `Cc1cc(N2CC(F)(F)C2)cnc1-c1cc(C(=O)Nc2cc(Cl)cc(NS(C)(=O)=O)c2)sc1C` [Example 537]: 63 and 20.8 nM.
The matching figures for `Cc1sc(C(=O)Nc2cc(Cl)cc(NS(C)(=O)=O)c2)cc1-c1ncc(N2CCC3(COC3)C2)cc1F` [Example 512]: 74.3 and 10.9 nM.
Turning to `Cc1cc(C(=O)Nc2cc(Cl)cc(NS(C)(=O)=O)c2)cn1-c1ccc(N2CCCC2)cn1` [Example 270], the “DHX9 Biochemical Max Inhibition” value worked out at 74.1% and the IC50 is 9.7 nM.
The matching figures for `Cc1sc(C(=O)Nc2cc(Cl)cc(NS(C)(=O)=O)c2)cc1-c1ncc(N2CC(F)(F)C2)cc1OCC(F)(F)F` [Example 707]: 67.1 and 28.3 nM.
The matching figures for `Cc1cc(N2CC(F)(F)C2)cnc1-c1cc(C(=O)Nc2cc(Cl)cc(NS(C)(=O)=O)c2)cn1C` [Example 461]: 46.1 and 53.9 nM.
The matching figures for `COc1ccc(-n2cc(C(=O)Nc3cc(Cl)cc(NS(C)(=O)=O)c3)cn2)nc1` [Example 197]: 72.7% and 26 nM.
For the molecule `CN1CCN(c2csc(C(=O)Nc3cc(Cl)cc(NS(C)(=O)=O)c3)c2)CC1=O` [Example 661], the “DHX9 Biochemical Max Inhibition” value was 78.6 and the IC50 was 3.2 nM.
The matching figures for `Cn1cc(C(=O)Nc2cc(Cl)cc(NS(C)(=O)=O)c2)cc1-c1ncc(N2CC(F)(F)C2)cc1OCc1cnco1` [Example 733]: 61.3 and 21.8 nM.
The matching figures for `Cc1cc(C(=O)Nc2cc(Cl)cc(NS(C)(=O)=O)c2)cn1-c1ncc(N2CCOC2=O)cn1` [Example 417]: 70.1 and 33.1 nM.
The matching figures for `Cc1cc(C(=O)Nc2cc(Cl)cc(NS(C)(=O)=O)c2)cn1-c1ncc(N2CCC2)cn1` [Example 398]: 65.9 and 8.8 nM.
`Cn1cc(C(=O)Nc2cc(Cl)cc(NS(C)(=O)=O)c2)cc1-c1ncc(F)cc1-c1cncc(F)c1` [Example 604, N-(3-chloro-5-methanesulfonamidophenyl)-5-{5,5′-difluoro-[3,3′-bipyridin]-2-yl}-1-methylpyrrole-3-carboxamide]: the “DHX9 Biochemical Max Inhibition” value was 69.1 and the IC50 amounted to 37 nM.
The matching figures for `CS(=O)(=O)Nc1cc(Cl)cc(NC(=O)c2cc(-c3ncccc3CC(=O)N3CCCC3)cs2)c1` [Example 383]: 78.3% and 10.1 nM.
The matching figures for `CS(=O)(=O)Nc1cc(Br)cc(NC(=O)c2cnn(-c3ccccc3OCc3ccccc3)c2)c1` [Example 51]: 61.1% and 145 nM.
In the case of `CS(=O)(=O)Nc1cc(Cl)cc(NC(=O)c2cc(N3CCN(CC(F)(F)F)CC3)cs2)c1` [Example 246], the “DHX9 Biochemical Max Inhibition” value amounted to 67.5% and the IC50 worked out at 186 nM.
The matching figures for `CS(=O)(=O)Nc1cc(Cl)cc(NC(=O)c2cc(-c3ccccc3)co2)c1` [Example 7]: 46.4% and 380 nM.
Take `Cn1cc(C(=O)Nc2cc(Cl)cc(NS(C)(=O)=O)c2)cc1-c1ncc(N2CCC(F)(F)CC2)cc1F` [Example 469]: the “DHX9 Biochemical Max Inhibition” value was found to be 83.4 and the IC50 was found to be 22.5 nM.
The matching figures for `CC(=O)N1CC2(CC(n3cc(C(=O)Nc4cc(Cl)cc(NS(C)(=O)=O)c4)cn3)C2)C1` [Example 313]: 63.6% and 147 nM.
The matching figures for `CS(=O)(=O)Nc1cc(Cl)cc(NC(=O)c2cnn(-c3ccc(N4CCOCC4=O)cn3)c2)c1` [Example 180]: 67.4% and 20.2 nM.
Take `COCc1ccc(-n2cc(C(=O)Nc3cc(Cl)cc(NS(C)(=O)=O)c3)cc2C)nc1` [Example 447]: the “DHX9 Biochemical Max Inhibition” value is given as 74.9 and the IC50 is 9 nM.
The matching figures for `CS(=O)(=O)Nc1cc(Cl)cc(NC(=O)c2cnn([C@@H]3CC[C@H]3O)c2)c1` (single isomer, unassigned) [Example 306a]: 70.6% and 127 nM.
With `Cc1sc(C(=O)Nc2cc(Cl)cc(NS(C)(=O)=O)c2)cc1-c1ncc(N2CCC3(CC2)CC3(F)F)cc1F` [Example 478], the “DHX9 Biochemical Max Inhibition” value is recorded as 66.8 and the IC50 was 150 nM.
The matching figures for `Cc1cc(C(=O)Nc2cc(Cl)cc(NS(C)(=O)=O)c2)cn1-c1ccc(C#N)cn1` [Example 425]: 90 and 55.5 nM.
The matching figures for `Cc1cc(C(=O)Nc2cc(Cl)cc(NS(C)(=O)=O)c2)cn1-c1ncc(N2CC(F)(F)C2)cc1OC(C)C` [Example 672]: 65.1 and 97.8 nM.
For the molecule `Cc1ccc(OCc2cccc(F)c2)c(-n2cc(C(=O)Nc3cc(Cl)cc(NS(C)(=O)=O)c3)cn2)n1` [Example 204], the “DHX9 Biochemical Max Inhibition” value turned out to be 68.9% and the IC50 turned out to be 9.6 nM.
The matching figures for `Cc1sc(C(=O)Nc2cc(Cl)cc(NS(C)(=O)=O)c2)cc1N1C(=O)N(C)C(C)(c2ccccn2)C1=O` (stereo not shown) [Example 660]: 67.1 and 2120 nM.
`Cn1cc(C(=O)Nc2cc(Cl)cc(NS(C)(=O)=O)c2)cc1-c1ncc(OC(C)(C)C)cc1F` [Example 557]: the “DHX9 Biochemical Max Inhibition” value was 59.8 and the IC50 came to 37.1 nM.
The matching figures for `Cn1cc(C(=O)Nc2cc(Cl)cc(NS(C)(=O)=O)c2)cc1-c1c(F)cc(F)cc1F` [Example 547]: 81.1 and 126 nM.
The matching figures for `COc1cnc(-c2cc(C(=O)Nc3cc(Cl)cc(NS(C)(=O)=O)c3)sc2C)c(F)c1` [Example 358]: 84.3% and 38.4 nM.
The matching figures for `CCS(=O)(=O)Nc1cc(Cl)cc(NC(=O)c2cc(-c3ncc(F)cc3F)c(C)s2)c1` [Example 347]: 72.1% and 34 nM.
On to `Cn1cc(C(=O)Nc2cc(Cl)cc(NS(C)(=O)=O)c2)cc1N1CCCCC1=O` [Example 158, N-(3-chloro-5-(methylsulfonamido)phenyl)-1-methyl-5-(2-oxopiperidin-1-yl)-1H-pyrrole-3-carboxamide], for which the “DHX9 Biochemical Max Inhibition” value is recorded as 76.5% and the IC50 came out at 34.5 nM.
As for `CS(=O)(=O)Nc1cc(Cl)cc(NC(=O)c2cnn(CCO)c2)c1` [Example 127], the “DHX9 Biochemical Max Inhibition” value amounted to 66.4% and the IC50 was 138 nM.
The matching figures for `Cc1sc(C(=O)Nc2cc(Cl)cc(NS(C)(=O)=O)c2)cc1-c1c(F)cccc1OCc1ccccc1` [Example 240]: 71% and 353 nM.
The matching figures for `CS(=O)(=O)Nc1cc(Br)cc(NC(=O)c2cnn(C3CCCCC3)c2)c1` [Example 48]: 54.1% and 93.1 nM.
The matching figures for `CS(=O)(=O)Nc1cc(Br)cc(NC(=O)c2cc(-c3ccccc3O)cs2)c1` [Example 21]: 61.7% and 33.2 nM.
Turning to `CN(C)C(=O)N1CCN(c2ccc(-n3cc(C(=O)Nc4cc(Cl)cc(NS(C)(=O)=O)c4)cn3)nc2)CC1` [Example 89], the “DHX9 Biochemical Max Inhibition” value is listed as 64.9% and the IC50 turned out to be 14.4 nM.
The matching figures for `Cn1cc(C(=O)Nc2cc(Cl)cc(NS(C)(=O)=O)c2)cc1-c1ncc(F)cc1Cl` [Example 544]: 66.5 and 59 nM.
Take `CS(=O)(=O)Nc1cc(Cl)cc(NC(=O)c2cc(C(=O)N3CCN(CC(F)(F)F)CC3)n(-c3ccccn3)c2)c1` [Example 649]: the “DHX9 Biochemical Max Inhibition” value turned out to be 67.6 and the IC50 stood at 50.3 nM.
The matching figures for `CS(=O)(=O)Nc1cc(Cl)cc(NC(=O)c2cc3c(F)cccc3s2)c1` [Example 296]: 69.9% and 125 nM.
The matching figures for `CC(C)(O)c1cc(C(=O)Nc2cc(Cl)cc(NS(C)(=O)=O)c2)cn1-c1ccccn1` [Example 650]: 80.6 and 52.4 nM.
As to `CCc1sc(C(=O)Nc2cc(Cl)cc(NS(C)(=O)=O)c2)cc1-c1ccc(F)cn1` [Example 589], the “DHX9 Biochemical Max Inhibition” value came out at 69.7.
Consider `CN1C(=O)N(c2ccc(-c3cc(C(=O)Nc4cc(Cl)cc(NS(C)(=O)=O)c4)cn3C)nc2)C(=O)C1(C)C` [Example 603], for which the “DHX9 Biochemical Max Inhibition” value is on record as 83.4 and the IC50 came to 10.9 nM.
